For one compound, Activity results are on record in ChEMBL document CHEMBL5696441 (Nat Chem Biol, 2011).

In assay [1] the test system is Tyrosine-protein kinase ABL1 (Homo sapiens), P00519 [Q252H]. As to the kind of experiment: Inhibition of ABL1 Q252H mutant (unknown origin) assessed as remaining activity at 1 uM by Kinome scan method relative to control.
The target of assay [2] is Atypical kinase COQ8B, mitochondrial (Homo sapiens) (UniProt Q96D53). As to the kind of experiment: Inhibition of ADCK4 (unknown origin) assessed as remaining activity at 1 uM by Kinome scan method relative to control.
The target of assay [3] is Mitogen-activated protein kinase kinase kinase 6 (Homo sapiens) (UniProt O95382). The assay is described as follows: Inhibition of ASK2 (unknown origin) assessed as remaining activity at 1 uM by Kinome scan method relative to control.
Assay [4] addresses Calcium/calmodulin-dependent protein kinase type II subunit alpha (Homo sapiens) (UniProt Q9UQM7). The assay is described as follows: Inhibition of CAMK2A (unknown origin) assessed as remaining activity at 1 uM by Kinome scan method relative to control.
The target in assay [5] is Epidermal growth factor receptor (Homo sapiens) (UniProt P00533). The assay is described as follows: Inhibition of EGFR (unknown origin) assessed as remaining activity at 1 uM by Kinome scan method relative to control.
Assay [6] has as its system Epidermal growth factor receptor (Homo sapiens), P00533 [UNDEFINED MUTATION]. As to the kind of experiment: Inhibition of EGFR L747-T751del/Sins mutant (unknown origin) assessed as remaining activity at 1 uM by Kinome scan method relative to control.
For assay [7], the target named is Vascular endothelial growth factor receptor 3 (Homo sapiens) (UniProt P35916). The assay is described as follows: Inhibition of FLT4 (unknown origin) assessed as remaining activity at 1 uM by Kinome scan method relative to control.
The target in assay [8] is Mitogen-activated protein kinase 9 (Homo sapiens) (UniProt P45984). The assay is described as follows: Inhibition of JNK2 (unknown origin) assessed as remaining activity at 1 uM by Kinome scan method relative to control.
Assay [9] relates to Hepatocyte growth factor receptor (Homo sapiens), P08581 [Y1235D]. The assay is described as follows: Inhibition of MET Y1235D mutant (unknown origin) assessed as remaining activity at 1 uM by Kinome scan method relative to control.
Assay [10] has as its target Mitogen-activated protein kinase kinase kinase 9 (Homo sapiens) (UniProt P80192). As to the kind of experiment: Inhibition of MLK1 (unknown origin) assessed as remaining activity at 1 uM by Kinome scan method relative to control.
Assay [11] has as its target Activin receptor type-1B (Homo sapiens) (UniProt P36896). As to the kind of experiment: Inhibition of human ACVR1B assessed as residual activity at 1 uM using RBER-CHKtide as substrate in presence of 33P-ATP by ProQinase assay relative to control.
Assay [12] deals with Tyrosine-protein kinase receptor UFO (Homo sapiens) (UniProt P30530). As to the kind of experiment: Inhibition of human AXL assessed as residual activity at 1 uM using polyEy as substrate in presence of 33P-ATP by ProQinase assay relative to control.
The target of assay [13] is CDK9/Cyclin K (Homo sapiens) (UniProt P50750+O75909). The assay is described as follows: Inhibition of human CDK9/CycK assessed as residual activity at 1 uM using RBER-CHKtide as substrate in presence of 33P-ATP by ProQinase assay relative to control. In kind it is protein-complex assay.
The target of assay [14] is Casein kinase I isoform gamma-2 (Homo sapiens) (UniProt P78368). As to the kind of experiment: Inhibition of human CK1gamma2 assessed as residual activity at 1 uM using casein as substrate in presence of 33P-ATP by ProQinase assay relative to control.
Assay [15] has as its system Epidermal growth factor receptor (Homo sapiens), P00533 [L858R,T790M]. As to the kind of experiment: Inhibition of human EGFR T790M/L858R mutant assessed as residual activity at 1 uM using PolyEY as substrate in presence of 33P-ATP by ProQinase assay relative to control.
Assay [16] has as its target Ephrin type-A receptor 7 (Homo sapiens) (UniProt Q15375). The assay is described as follows: Inhibition of human EPHA7 assessed as residual activity at 1 uM using polyEy as substrate in presence of 33P-ATP by ProQinase assay relative to control.
In assay [17] the target is T1, Homeodomain-interacting protein kinase 4 (Homo sapiens) (UniProt Q8NE63).
T1 sequence (whole entry): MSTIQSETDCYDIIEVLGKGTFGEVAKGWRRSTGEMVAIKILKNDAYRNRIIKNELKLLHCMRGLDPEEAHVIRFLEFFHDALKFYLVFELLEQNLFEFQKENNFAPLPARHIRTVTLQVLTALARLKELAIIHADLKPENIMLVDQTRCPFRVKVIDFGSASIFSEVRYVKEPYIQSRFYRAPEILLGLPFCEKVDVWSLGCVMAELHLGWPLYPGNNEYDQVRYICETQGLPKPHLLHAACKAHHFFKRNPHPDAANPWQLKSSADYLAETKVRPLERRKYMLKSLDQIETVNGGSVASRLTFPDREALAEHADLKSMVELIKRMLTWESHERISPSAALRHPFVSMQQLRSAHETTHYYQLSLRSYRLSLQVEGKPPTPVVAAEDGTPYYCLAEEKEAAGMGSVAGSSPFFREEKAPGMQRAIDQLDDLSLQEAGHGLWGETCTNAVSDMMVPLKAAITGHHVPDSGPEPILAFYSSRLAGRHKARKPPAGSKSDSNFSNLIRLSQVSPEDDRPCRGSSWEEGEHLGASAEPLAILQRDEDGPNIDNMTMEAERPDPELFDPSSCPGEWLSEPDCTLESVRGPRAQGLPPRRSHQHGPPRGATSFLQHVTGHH
The assay is described as follows: Inhibition of human HIPK4 assessed as residual activity at 1 uM using RBER-IRStide as substrate in presence of 33P-ATP by ProQinase assay relative to control.

For assay [18], the target named is Insulin receptor (Homo sapiens) (UniProt P06213). The assay is described as follows: Inhibition of human INSR assessed as residual activity at 1 uM using poly(Ala,Glu,Lys,Tyr)6:2:5:1 as substrate in presence of 33P-ATP by ProQinase assay relative to control.
In assay [19] the target is Serine/threonine-protein kinase PAK 4 (Homo sapiens) (UniProt O96013). The assay is described as follows: Inhibition of human PAK4 assessed as residual activity at 1 uM using bio-4xCHKT as substrate in presence of 33P-ATP by ProQinase assay relative to control.
Assay [20] addresses Platelet-derived growth factor receptor beta (Homo sapiens) (UniProt P09619). As to the kind of experiment: Inhibition of human PDGFRbeta assessed as residual activity at 1 uM using poly(Ala,Glu,Lys,Tyr) as substrate in presence of 33P-ATP by ProQinase assay relative to control.
Assay [21] deals with Proto-oncogene tyrosine-protein kinase receptor Ret (Homo sapiens) (UniProt P07949). The assay is described as follows: Inhibition of human RET assessed as residual activity at 1 uM using polyEY as substrate in presence of 33P-ATP by ProQinase assay relative to control.
Assay [22] has as its target Serine/threonine-protein kinase TBK1 (Homo sapiens) (UniProt Q9UHD2). As to the kind of experiment: Inhibition of human TBK1 assessed as residual activity at 1 uM using casein as substrate in presence of 33P-ATP by ProQinase assay relative to control.
Assay [23] has as its target BDNF/NT-3 growth factors receptor (Homo sapiens) (UniProt Q16620). As to the kind of experiment: Inhibition of human TRKB assessed as residual activity at 1 uM using polyEY as substrate in presence of 33P-ATP by ProQinase assay relative to control.

Ephrin type-A receptor 7 (Homo sapiens), sequence (Q15375 28-998 limits assumed): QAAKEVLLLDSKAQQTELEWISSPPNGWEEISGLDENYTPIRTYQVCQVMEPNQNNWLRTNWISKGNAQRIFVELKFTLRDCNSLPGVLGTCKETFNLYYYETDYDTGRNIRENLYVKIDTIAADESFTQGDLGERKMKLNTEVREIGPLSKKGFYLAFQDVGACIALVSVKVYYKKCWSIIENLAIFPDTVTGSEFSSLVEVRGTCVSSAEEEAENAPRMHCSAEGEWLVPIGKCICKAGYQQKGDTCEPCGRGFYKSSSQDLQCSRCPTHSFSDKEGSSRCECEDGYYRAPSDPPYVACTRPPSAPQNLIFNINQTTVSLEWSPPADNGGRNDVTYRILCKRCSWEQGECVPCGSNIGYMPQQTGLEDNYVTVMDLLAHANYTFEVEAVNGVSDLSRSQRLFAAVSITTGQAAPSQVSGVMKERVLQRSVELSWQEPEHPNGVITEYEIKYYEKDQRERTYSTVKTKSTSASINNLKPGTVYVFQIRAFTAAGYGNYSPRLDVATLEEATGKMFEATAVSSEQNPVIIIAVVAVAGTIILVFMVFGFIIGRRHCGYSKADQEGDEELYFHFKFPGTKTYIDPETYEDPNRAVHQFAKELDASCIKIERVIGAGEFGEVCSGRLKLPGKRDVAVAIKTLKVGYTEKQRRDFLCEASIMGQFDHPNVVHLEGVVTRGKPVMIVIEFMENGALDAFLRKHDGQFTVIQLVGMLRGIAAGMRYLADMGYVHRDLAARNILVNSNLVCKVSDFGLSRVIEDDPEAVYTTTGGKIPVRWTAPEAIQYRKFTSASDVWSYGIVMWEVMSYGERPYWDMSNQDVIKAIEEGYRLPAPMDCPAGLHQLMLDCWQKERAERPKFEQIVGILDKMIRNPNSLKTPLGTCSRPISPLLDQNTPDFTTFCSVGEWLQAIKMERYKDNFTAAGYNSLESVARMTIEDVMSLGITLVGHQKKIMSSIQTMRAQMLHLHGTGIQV
Mitogen-activated protein kinase kinase kinase 6 (Homo sapiens), sequence (O95382 whole entry): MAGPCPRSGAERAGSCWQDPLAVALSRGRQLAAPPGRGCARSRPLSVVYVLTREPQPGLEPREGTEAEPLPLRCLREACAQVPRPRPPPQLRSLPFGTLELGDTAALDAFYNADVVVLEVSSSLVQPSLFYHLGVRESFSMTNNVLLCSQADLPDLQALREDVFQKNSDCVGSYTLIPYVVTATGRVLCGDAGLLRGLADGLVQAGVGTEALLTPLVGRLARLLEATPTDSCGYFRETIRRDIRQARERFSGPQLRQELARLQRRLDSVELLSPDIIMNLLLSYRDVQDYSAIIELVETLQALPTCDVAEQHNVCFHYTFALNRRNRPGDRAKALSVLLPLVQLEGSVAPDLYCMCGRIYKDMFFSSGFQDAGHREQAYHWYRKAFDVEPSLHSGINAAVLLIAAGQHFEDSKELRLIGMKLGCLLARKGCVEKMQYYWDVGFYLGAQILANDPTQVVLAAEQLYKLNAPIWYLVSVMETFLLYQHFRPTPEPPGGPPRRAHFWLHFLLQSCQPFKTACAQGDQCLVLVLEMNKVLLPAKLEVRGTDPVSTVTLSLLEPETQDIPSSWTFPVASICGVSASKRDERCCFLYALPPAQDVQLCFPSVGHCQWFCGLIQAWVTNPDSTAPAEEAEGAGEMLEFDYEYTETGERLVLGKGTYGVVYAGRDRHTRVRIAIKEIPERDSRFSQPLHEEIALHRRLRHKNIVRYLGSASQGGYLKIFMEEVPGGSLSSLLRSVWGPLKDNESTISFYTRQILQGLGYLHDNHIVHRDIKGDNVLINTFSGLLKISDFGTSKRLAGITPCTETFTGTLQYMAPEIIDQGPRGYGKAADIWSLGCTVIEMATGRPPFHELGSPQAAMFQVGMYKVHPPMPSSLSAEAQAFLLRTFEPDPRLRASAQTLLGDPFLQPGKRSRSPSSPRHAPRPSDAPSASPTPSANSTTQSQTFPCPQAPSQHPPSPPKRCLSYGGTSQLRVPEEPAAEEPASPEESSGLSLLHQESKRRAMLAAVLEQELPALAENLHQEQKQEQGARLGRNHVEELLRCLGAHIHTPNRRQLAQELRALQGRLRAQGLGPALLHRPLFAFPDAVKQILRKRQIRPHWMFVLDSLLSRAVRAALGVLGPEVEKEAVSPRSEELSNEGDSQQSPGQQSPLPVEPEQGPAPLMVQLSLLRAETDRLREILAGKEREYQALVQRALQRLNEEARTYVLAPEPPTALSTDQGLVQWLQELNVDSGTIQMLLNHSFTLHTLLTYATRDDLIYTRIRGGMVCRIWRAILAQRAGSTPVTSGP
Calcium/calmodulin-dependent protein kinase type II subunit alpha (Homo sapiens), sequence (Q9UQM7 whole entry): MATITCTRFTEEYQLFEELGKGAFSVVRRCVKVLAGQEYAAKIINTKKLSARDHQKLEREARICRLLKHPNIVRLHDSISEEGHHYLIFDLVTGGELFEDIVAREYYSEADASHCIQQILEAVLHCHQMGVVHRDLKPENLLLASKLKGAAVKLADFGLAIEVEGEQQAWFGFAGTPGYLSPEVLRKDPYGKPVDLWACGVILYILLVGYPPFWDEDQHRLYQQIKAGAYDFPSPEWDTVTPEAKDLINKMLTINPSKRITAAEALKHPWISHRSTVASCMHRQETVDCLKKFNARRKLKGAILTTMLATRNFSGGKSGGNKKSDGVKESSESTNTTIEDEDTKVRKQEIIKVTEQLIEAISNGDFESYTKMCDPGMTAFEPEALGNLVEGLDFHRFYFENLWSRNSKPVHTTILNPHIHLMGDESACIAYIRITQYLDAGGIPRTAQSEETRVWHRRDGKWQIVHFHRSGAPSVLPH
Insulin receptor (Homo sapiens), sequence (P06213 28-758 limits assumed): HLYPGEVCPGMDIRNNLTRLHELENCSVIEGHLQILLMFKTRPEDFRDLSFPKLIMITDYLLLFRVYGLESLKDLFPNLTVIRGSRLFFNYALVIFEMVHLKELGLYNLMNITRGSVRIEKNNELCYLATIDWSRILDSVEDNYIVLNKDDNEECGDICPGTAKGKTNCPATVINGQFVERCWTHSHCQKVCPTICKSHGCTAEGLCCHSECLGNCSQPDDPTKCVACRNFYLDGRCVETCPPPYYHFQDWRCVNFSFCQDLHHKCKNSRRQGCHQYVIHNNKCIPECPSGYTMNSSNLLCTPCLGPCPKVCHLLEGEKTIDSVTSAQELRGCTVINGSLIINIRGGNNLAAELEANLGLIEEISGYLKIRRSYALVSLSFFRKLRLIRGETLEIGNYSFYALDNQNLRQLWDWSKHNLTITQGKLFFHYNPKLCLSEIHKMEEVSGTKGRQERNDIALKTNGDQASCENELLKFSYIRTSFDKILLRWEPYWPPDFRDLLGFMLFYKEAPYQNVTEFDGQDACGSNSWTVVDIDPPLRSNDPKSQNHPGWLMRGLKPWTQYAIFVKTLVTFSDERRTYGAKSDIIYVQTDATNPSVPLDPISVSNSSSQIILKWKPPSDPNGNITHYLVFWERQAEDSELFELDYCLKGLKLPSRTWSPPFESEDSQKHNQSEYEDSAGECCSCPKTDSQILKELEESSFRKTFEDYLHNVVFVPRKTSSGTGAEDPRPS
Insulin receptor (Homo sapiens), sequence (P06213 763-1382 limits assumed): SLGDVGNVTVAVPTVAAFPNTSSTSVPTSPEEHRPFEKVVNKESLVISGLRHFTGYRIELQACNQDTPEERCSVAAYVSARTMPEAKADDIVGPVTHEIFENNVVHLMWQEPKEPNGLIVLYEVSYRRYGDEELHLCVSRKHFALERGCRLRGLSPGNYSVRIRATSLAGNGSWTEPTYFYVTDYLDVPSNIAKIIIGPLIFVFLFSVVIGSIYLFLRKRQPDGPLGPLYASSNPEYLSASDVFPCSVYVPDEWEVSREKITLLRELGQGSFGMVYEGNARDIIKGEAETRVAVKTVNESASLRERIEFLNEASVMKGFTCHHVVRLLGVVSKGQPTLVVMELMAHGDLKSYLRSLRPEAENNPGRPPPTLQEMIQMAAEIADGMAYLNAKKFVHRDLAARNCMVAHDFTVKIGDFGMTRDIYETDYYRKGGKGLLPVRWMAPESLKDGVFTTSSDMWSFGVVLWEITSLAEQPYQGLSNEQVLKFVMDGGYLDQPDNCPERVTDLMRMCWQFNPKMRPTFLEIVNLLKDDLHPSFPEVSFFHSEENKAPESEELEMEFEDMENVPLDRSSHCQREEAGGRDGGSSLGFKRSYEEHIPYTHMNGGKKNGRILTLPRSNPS
Serine/threonine-protein kinase PAK 4 (Homo sapiens), sequence (O96013 whole entry, looked up): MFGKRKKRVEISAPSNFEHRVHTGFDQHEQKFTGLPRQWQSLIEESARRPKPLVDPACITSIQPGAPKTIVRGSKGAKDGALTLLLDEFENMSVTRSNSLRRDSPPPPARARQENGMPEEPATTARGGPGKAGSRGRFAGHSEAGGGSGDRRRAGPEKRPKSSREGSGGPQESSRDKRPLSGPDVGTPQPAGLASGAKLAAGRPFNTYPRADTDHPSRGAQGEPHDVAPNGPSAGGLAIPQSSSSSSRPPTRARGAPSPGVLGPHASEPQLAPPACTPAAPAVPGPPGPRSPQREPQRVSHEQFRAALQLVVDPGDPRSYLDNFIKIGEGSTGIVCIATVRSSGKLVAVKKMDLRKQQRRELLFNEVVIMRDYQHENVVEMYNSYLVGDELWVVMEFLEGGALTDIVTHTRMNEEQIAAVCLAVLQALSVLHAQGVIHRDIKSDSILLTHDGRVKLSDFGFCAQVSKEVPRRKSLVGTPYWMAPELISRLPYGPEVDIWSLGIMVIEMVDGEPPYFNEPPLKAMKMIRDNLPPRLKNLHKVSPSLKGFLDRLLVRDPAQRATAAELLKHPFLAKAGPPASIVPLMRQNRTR

Regarding `O=C1c2ccc(Nc3ccc(F)cc3F)cc2CCc2ccc(OC[C@H](O)CO)cc21` [Skepinone-L], the Activity in [1] was 93%; in [2], 100%; in [3] it was 100%; in assay [4], 100%; in assay [5] it was 98%; in [6], 98%. The Activity in assay [7] amounted to 97%; in assay [8], 100%; in assay [9] it was 97%; in assay [10], 100%; in [11] it was 77%; in [12], 100%. The Activity in assay [13] was 92%; in [14] it was 98%; in [15], 93%; in assay [16], 109%; in [17], 116%; in assay [18], 101%. Also, the Activity in assay [19] came to 88%; in assay [20], 96%; in [21] it was 102%; in [22], 87%; in assay [23] it was 77%.
